The results in this text go back to US8629242B2, “Methods of inhibiting calcineurin with ApoE analogs” (Cognosci, Inc., priority 2007, dated 2014).

Where a SMILES comes first, the peptide text is derived from it. [ ]: non-standard residue; d: D form. Aib = CC(C)(N)C(=O)O

Test [1] relates to myelin oligodendrocyte glycoprotein (MOG)-induced experimental autoimmune encephalomyelitis (EAE) model. Put plainly: MOG-induced EAE model of multiple sclerosis, treatment after disease onset. It is filed as in vivo, C57BL/6J mice. Particulars: for maximal severity of disability / progress of the disease (clinical score) / mice exhibiting complete remission: 1 mg/kg i.p. daily from first CS≥2; for burden of disability (area under curve of clinical score): 1 mg/kg i.p., data not shown; for demyelination and infiltration of peripheral mononuclear cells in spinal cord: Luxol Fast Blue and eosin staining; for mice exhibiting complete remission: dpi 35, saline control 22%. As for the experimental part:
FIG. 1. […] (B) Percentage of animals in remission. Statistical analysis was conducted by ANOVA comparing the CS after day 18, which was defined as the recovery phase. FIG. 2. Representative histopathology of EAE in mice treated with COG 112 or saline control. 5 μm thick sections were stained with Luxol fast blue and eosin to reveal demyelination and peripheral infiltrates. The left panels show the pathological changes in spinal cord from cervical (A), thoracic (B) and lumbar (C) segments of a saline-treated control animal. Demyelination is shown as loss of blue staining in white matter and peripheral infiltrates are stained with purple particles. Panels D, E and F show the corresponding segments of a COG 112-treated animal where no obvious demyelination is observed. The boxed-insets of panel A and D are magnified 10× in panel G and H, respectively. FIG. 3. Profiling and quantification of T cell subset infiltrates in the spinal cords of animals on 21 days post-immunization that were treated with or without COG 112. Single-cell suspensions of spinal cord were stained with anti-CD3, CD4, and CD8 mAbs. Frequency of CD3+CD45+ cytometry (T cell) is represented in control (A) and COG112-treated (C) animals. Frequency of CD4+ and CD8+ T cells is represented in saline control (B) and COG 112-treated (D) mice. Total cell number for each of the specific cell surface markers is calculated and expressed as number per spinal cord (E). […] C57BL/6J mice were first immunized with MOG to create an EAE model. […] One of the pathological hallmarks of MS is extensive demyelination of the myelin sheath surrounding neurons accompanied by massive infiltration of peripheral leukocytes into the brain and the spinal cord, all of which contribute to the clinical manifestations of neurological disability. We further examined the effects of COG peptides on demyelination and leukocyte-influx into the spinal cords by Luxol Fast Blue (LFB) and Eosin staining. […] Panel G is a magnified view of the boxed area in A. […] Single-cell suspensions of spinal cord were stained with anti-CD3, CD4, and CD8 mAbs. As shown in FIGS. 3A & C, the frequency of CD3+ T cells in the spinal cords of mice treated with COG 112 was reduced as compared to vehicle controls on dpi 21.

The subject of test [2] is oligodendrocyte precursor cells (OPC)/microglia mixed culture. Description: LPS-induced OPC cell death in OPC/microglia mixed culture. The conditions noted are these: 1 μM, LPS 10 ng/ml; for OPC cell death by LDH and MTT assays: 24 hours. It is filed as cell-based, rat. As for the experimental part:
FIG. 9. COG 112 protects OPCs from LPS-induced cell death in OPC/microglia mixed culture. LPS (final conc. 10 ng/ml) was added to an OPC/microglia mixed culture with or without 1 μM COG 112. The prefix peptide of COG 112, antennapedia, was used as a negative control. Cells were fixed with 4% formaldehyde and stained with the OPC marker, NG2, and counterstained with hoescht. (A) LPS-treated cultures; (B) LPS+antennapedia (Antp)-treated cultures; (C) LPS+COG 112-treated cultures; (D) Bar graph summarizing the number of NG2+ cells per field in each condition. ** p<0.01.
FIG. 19. COG 345 promotes remyelination in lysolecithin-induced demyelination model of cerebellum slices. Significant demyelination was induced by lysolecithin (0.5 mg/ml) in cerebellar slices. COG 112 or COG 345 (1 μM) was added on day 3 when full demyelination was achieved. 4 days later, the slices were fixed and double stained with myelin marker MBP (green) and Purkinje cell marker calbindin (red). (A) Untreated-slices; (B) lysolecithin-treated slices; (C) COG 112-treated slices after lysolecithin exposure; (D) COG 345-treated slices after lysolecithin exposure. E-F. ApoE analogs protect OPCs from LPS-induced cell death in OPC/microglia mixed culture. OPCs and microglia derived from brain culture of P2 rat pups were plated in 96-well plates in 1:1 ratio. LPS (10 ng/ml) together with 1 μM of the indicated ApoE analogs was added to the cultures. After 24 hours, OPC cell death was quantified by LDH assay (E) and MTT assay (F). Statistical analysis was conducted by one-way ANOVA followed by Dunnett comparison vs. LPS group. * P<0.01, ** P<0.001, n=3.
A primary culture prepared from the brains of P2 Sprague-Dawley rat pups was grown for seven days. Microglia and OPCs were shaken off from the primary culture with an orbital shaker at 150˜200 rpm. The OPCs and microglia were plated in 24-well plates at a 1:1 ratio with 5×10^4 cells per well of each cell type. After 24 hours, LPS (final conc. 10 ng/ml) was added with or without 1 μM COG 112. The prefix peptide of COG 112, antennapedia, was used as a negative control. After incubation for 72 hours, the medium was removed and cells were fixed with 4% formaldehyde and stained with the OPC marker, NG2, and counterstained with hoescht. Five fields from each of the wells were randomly chosen to count the number of NG2-positive cells.
To further assess the ability of the novel ApoE analogs to promote remyelination, the effect of the analogs on OPC survival was assessed in an OPC/microglia mixed culture. OPC and microglia derived from primary culture of P2 rat pup brain were plated on 96-well plates in 1:1 ratio. […] After 24 hours, cell death of OPC was quantified by both LDH and MTT assays.

Regarding `CC(=O)N[C@@H](CC(C)C)C(=O)N[C@@H](CCCNC(=N)N)C(=O)N[C@H](C(=O)N[C@@H](CCCNC(=N)N)C(=O)N[C@@H](CC(C)C)C(=O)N[C@@H](C)C(=O)N[C@@H](CO)C(=O)N[C@@H](Cc1c[nH]cn1)C(=O)N[C@@H](CC(C)C)C(=O)N[C@@H](CCCNC(=N)N)C(=O)N[C@@H](CCCCN)C(=O)N[C@@H](CC(C)C)C(=O)N[C@@H](CCCNC(=N)N)C(=O)N[C@@H](CCCCN)C(=O)N[C@@H](CCCNC(=N)N)C(=O)N[C@@H](CC(C)C)C(=O)N[C@@H](CC(C)C)C(N)=O)C(C)C` [COG 133], in test [1], the “maximal severity of disability” value is “significantly reduced the maximal severity of disability”; the “progress of the disease (clinical score)” value is given as “significantly slowed the deleterious progress of the disease”; the “burden of disability (area under curve of clinical score)” value is given as “significantly reduced the burden of disability”; the “demyelination and infiltration of peripheral mononuclear cells in spinal cord” value was “greatly reduced”. In addition, the “mice exhibiting complete remission” value in test [1] is recorded as 50%.
Consider `CC(=O)NC(=N)NCCC[C@H](NC(=O)[C@H](CCCCN)NC(=O)[C@H](CCCNC(=N)N)NC(=O)[C@H](CC(C)C)NC(=O)[C@H](CCCCN)NC(=O)[C@H](CCCNC(=N)N)NC(=O)[C@H](CC(C)C)NC(=O)C(C)(C)NC(=O)[C@H](CO)NC(=O)[C@H](C)NC(=O)[C@H](CC(C)C)NC(=O)[C@H](CCCNC(=N)N)NC(=O)[C@@H](NC(=O)[C@H](CCCNC(=N)N)NC(=O)[C@H](CC(C)C)NC(C)=O)C(C)C)C(=O)N[C@@H](CC(C)C)C(=O)N[C@@H](CC(C)C)C(N)=O` [COG 345, acetyl-LRVRLAS-Aib-LRKLRK(acetyl-Arg)LL-amide] (Ac-LRVRLAS[Aib]LRKLRKR(Ac)LL-NH2), for which the “OPC cell death by LDH and MTT assays” value in test [2] is “most potent”.
As to “Ac-RQIKIWFQNRRMKWKKCLRVRLASHLRKLRKRLL-NH2 [COG 112]”, in test [1], the “maximal severity of disability” value is on record as “significantly reduced the maximal severity of disability”; the “progress of the disease (clinical score)” value is reported as “significantly slowed the deleterious progress of the disease”; the “burden of disability (area under curve of clinical score)” value was “significantly reduced the burden of disability”; the “demyelination and infiltration of peripheral mononuclear cells in spinal cord” value was “greatly reduced”. Also, the “mice exhibiting complete remission” value in test [1] stood at 71%. For the same compound, in test [1] (dpi 21, vs vehicle), the “CD4+ T cell infiltration into the spinal cord” value is “significantly reduced”, the “frequency of CD3+ T cells in the spinal cord” value is recorded as “reduced” and the “number of CD8+ T cells in the spinal cord” value is reported as “no significant difference”. For the same compound, the “OPC cell death by LDH and MTT assays” value in test [2] is “most potent”. Besides, in test [2] (72 hours), the “LPS-induced cell death of OPCs (number of NG2-positive cells)” value is “significantly reduced LPS-induced cell death of OPCs”.
